The molecules below were run against T1, GPR119 (UniProt Q8TDV5, S309L, species not given) (assay: GPR119 signaling, cyclic AMP (cAMP) HTRF assay). Conditions: CHO cells with Gα15 and murine GPR119 or HEK293 Flp-In cells with human GPR119 S309L, read-out: EC50 (agonist activation of GPR119, cAMP).
T1 sequence (Q8TDV5 1-335 S309L): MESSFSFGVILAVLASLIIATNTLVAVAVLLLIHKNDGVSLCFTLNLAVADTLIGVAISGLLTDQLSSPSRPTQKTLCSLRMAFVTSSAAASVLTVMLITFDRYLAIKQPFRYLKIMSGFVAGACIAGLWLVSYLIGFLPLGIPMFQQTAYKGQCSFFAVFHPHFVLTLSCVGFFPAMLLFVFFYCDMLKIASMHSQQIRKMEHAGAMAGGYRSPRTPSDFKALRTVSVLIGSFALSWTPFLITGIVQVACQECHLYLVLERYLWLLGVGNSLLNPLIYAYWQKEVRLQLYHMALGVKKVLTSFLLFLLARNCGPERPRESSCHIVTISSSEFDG
Assay type: cell-based, human (S309L variant) or murine
Description: The title compound was synthesized using 2-{2-[1-(5-chloropyrimidin-2-yl)piperidin-4-yl]cyclopropyl}ethyl 4-methylbenzenesulfonate from step 1 of this example by a general procedure analogous that described in Example 59. LRMS calc: 424.9; obs: 425.01 (M+1). Measurement of GPR119Signaling Using a Cyclic AMP (cAMP) Homogenous Time Resolved Fluorescence (HTRF) Assay
Chinese hamster ovary (CHO) cell lines stably transfected with the permissive guanine nucleotide binding protein alpha 15 (Gα15) and murine GPR119 were maintained in DMEM media containing FBS, penicillin-streptomycin, puromycin, and G418 (geneticin). Alternatively, human embryonic kidney (HEK)293 Flp-In cells (Invitrogen, Carlsbad, Calif.) were stably transfected with a human SNP variant (S309L) of GPR119 and maintained in DMEM media containing FBS, penicillin-streptomycin, and hygromycin. Agonist activation of the GPR119 receptor was measured in receptor transfected cells described above, treated with compounds of this invention, using a commercial homogenous time resolved fluorescence (HTRF) kit for measurement of cAMP (CisBio, Bedford, Mass.). The assay was performed in 96-well half-volume plates (murine) or 384-well plates (human) following the manufacturers instructions. Briefly, suspended cells were incubated with a dose titration of test compound at room temperature for 60 min, lysed, and incubated with HTRF reagents for an additional 60 min. The plate was read using an Envision multilabel reader (Perkin Elmer) adjusted to read time resolved fluorescence and the cAMP concentrations were extrapolated from a cAMP calibration curve. […] The concentration of test compound required to stimulate a half-maximal response (EC50), and efficacy as compared to an internal agonist control, was determined from a sigmoidal 4-parameter curve fit of the resulting plot of normalized activity versus compound concentration.

SMILES | EC50 [nM]
O=C1CCCN1c1ccc(NCC[C@@H]2C[C@@H]2C2CCN(c3ncc(Cl)cn3)CC2)cn1 [Ex 20, 1-{5-[(2-{(1S,2S)-2-[1-(5-chloropyrimidin-2-yl)piperidin-4-yl]cyclopropyl}ethyl)amino]pyridin-2-yl}pyrrolidin-2-one] | 10 to 50
O=C1COC(=O)N1c1ccc(NCC[C@@H]2C[C@@H]2C2CCN(c3ncc(Cl)cn3)CC2)cn1 [Ex 27] | 10 to 50
Cc1cc(C#N)nc(NCC[C@@H]2C[C@@H]2C2CCN(c3ncc(Cl)cn3)CC2)c1 [Ex 41, 6-[(2-{(1S,2S)-2-[1-(5-chloropyrimidin-2-yl)piperidin-4-yl]cyclopropyl}ethyl)amino]-4-methylpyridine-2-carbonitrile] | 10 to 50
CC(=O)Nc1ccc(NCC[C@@H]2C[C@@H]2C2CCN(c3ncc(Cl)cn3)CC2)nc1 [Ex 35, N-{6-[(2-{(1S,2S)-2-[1-(5-chloropyrimidin-2-yl)piperidin-4-yl]cyclopropyl}ethyl)amino]pyridin-3-yl}acetamide] | 10 to 50
Cn1cnnc1-c1ccc(NCC[C@@H]2C[C@@H]2C2CCN(c3ncc(Cl)cn3)CC2)cc1 [Ex 13, N-(2-{(1S,2S)-2-[1-(5-chloropyrimidin-2-yl)piperidin-4-yl]cyclopropyl}ethyl)-4-(4-methyl-4H-1,2,4-triazol-3-yl)aniline] | 10 to 50
Cc1cc(C#N)cc(NCC[C@@H]2C[C@@H]2C2CCN(c3ncc(Cl)cn3)CC2)n1 [Ex 40, 2-[(2-{(1S,2S)-2-[1-(5-chloropyrimidin-2-yl)piperidin-4-yl]cyclopropyl}ethyl)amino]-6-methylisonicotinonitrile] | 10 to 50
CN1Cc2cc(NCC[C@@H]3C[C@@H]3C3CCN(c4ncc(Cl)cn4)CC3)ccc2C1=O [Ex 45, 5-[(2-{(1S,2S)-2-[1-(5-chloropyrimidin-2-yl)piperidin-4-yl]cyclopropyl}ethyl)amino]-2-methylisoindolin-1-one] | 10 to 50
Cc1nc(C#N)cc(NCC[C@@H]2C[C@@H]2C2CCN(c3ncc(Cl)cn3)CC2)n1 [Ex 5, 6-[(2-{(1S,2S)-2-[1-(5-chloropyrimidin-2-yl)piperidin-4-yl]cyclopropyl}ethyl)amino]-2-methylpyrimidine-4-carbonitrile] | 10 to 50
CC(=O)Nc1cnc(NCC[C@@H]2C[C@@H]2C2CCN(c3ncc(Cl)cn3)CC2)c(C)c1 [Ex 33, N-{6-[(2-{(1S,2S)-2-[1-(5-chloropyrimidin-2-yl)piperidin-4-yl]cyclopropyl}ethyl)amino]-5-methylpyridin-3-yl}acetamide] | 10 to 50
CN(CC[C@@H]1C[C@@H]1C1CCN(c2ncc(Cl)cn2)CC1)c1ccc(S(C)(=O)=O)cc1 [Ex 9, N-(2-{(1S,2S)-2-[1-(5-chloropyrimidin-2-yl)piperidin-4-yl]cyclopropyl}ethyl)-N-methyl-4-(methylsulfonyl)aniline] | 50 to 200
CC1(C(=O)Nc2ccc(NCC[C@@H]3C[C@@H]3C3CCN(c4ncc(Cl)cn4)CC3)nc2)CC1 [Ex 37, N-{6-[(2-{(1S,2S)-2-[1-(5-chloropyrimidin-2-yl)piperidin-4-yl]cyclopropyl}ethyl)amino]pyridin-3-yl}-1-methylcyclopropanecarboxamide] | < 10
O=C(Cc1ccc(NCC[C@@H]2C[C@@H]2C2CCN(c3ncc(Cl)cn3)CC2)cc1)NC1CC1 [Ex 43, 2-{4-[(2-{(1S,2S)-2-[1-(5-chloropyrimidin-2-yl)piperidin-4-yl]cyclopropyl}ethyl)amino]phenyl}-N-cyclopropylacetamide] | 10 to 50
CC(C)(C)C(=O)Nc1ncc(NCC[C@@H]2C[C@@H]2C2CCN(c3ncc(Cl)cn3)CC2)cc1Cl [Ex 32, N-{3-chloro-5-[(2-{(1S,2S)-2-[1-(5-chloropyrimidin-2-yl)piperidin-4-yl]cyclopropyl}ethyl)amino]pyridin-2-yl}-2,2-dimethyl propanamide] | < 10
Cn1cc2cc(NCC[C@@H]3C[C@@H]3C3CCN(c4ncc(Cl)cn4)CC3)ccc2n1 [Ex 49, N-(2-{(1S,2S)-2-[1-(5-chloropyrimidin-2-yl)piperidin-4-yl]cyclopropyl}ethyl)-2-methyl-2H-indazol-5-amine] | 10 to 50
O=C1Cc2cc(NCC[C@@H]3C[C@@H]3C3CCN(c4ncc(Cl)cn4)CC3)cc(F)c2N1 [Ex 53, 5-[(2-{(1S,2S)-2-[1-(5-chloropyrimidin-2-yl)piperidin-4-yl]cyclopropyl}ethyl)amino]-7-fluoro-1,3-dihydro-2H-indol-2-one] | < 10
Cc1cc(NC(=O)C(C)(C)C)cnc1NCC[C@@H]1C[C@@H]1C1CCN(c2ncc(Cl)cn2)CC1 [Ex 28, N-{6-[(2-{(1S,2S)-2-[1-(5-chloropyrimidin-2-yl)piperidin-4-yl]cyclopropyl}ethyl)amino]-5-methylpyridin-3-yl}-2,2-dimethylpropanamide] | < 10
Cc1cc(NCC[C@@H]2C[C@@H]2C2CCN(c3ncc(Cl)cn3)CC2)cnc1NC(=O)C1(C)CC1 [Ex 39] | < 10
Cc1nc(C#N)cc(NCC[C@H]2C[C@@H]2C2CCN(c3ncc(Cl)cn3)CC2)n1 (relative stereo) [Ex 61, trans 6-[(2-{2-[1-(5-chloropyrimidin-2-yl)piperidin-4-yl]cyclopropyl}ethyl)amino]-2-methylpyrimidine-4-carbonitrile] | < 10
O=C1Cc2cc(NCC[C@@H]3C[C@@H]3C3CCN(c4ncc(Cl)cn4)CC3)ccc2N1 [Ex 50, 5-[(2-{(1S,2S)-2-[1-(5-chloropyrimidin-2-yl)piperidin-4-yl]cyclopropyl}ethyl)amino]-1,3-dihydro-2H-indol-2-one] | 10 to 50

The remaining lines, values ahead:

EC50 [nM] | SMILES
< 10 | Clc1cnc(N2CCC([C@H]3C[C@H]3CCNc3ccc(-n4cnnn4)cc3)CC2)nc1 [Ex 10, N-(2-{(1S,2S)-2-[1-(5-chloropyrimidin-2-yl)piperidin-4-yl]cyclopropyl}ethyl)-4-(1H-tetrazol-1-yl)aniline]
< 10 | CS(=O)(=O)c1ccc(NCC[C@@H]2C[C@@H]2C2CCN(c3ncc(Cl)cn3)CC2)cc1 [Ex 7, N-(2-{(1S,2S)-2-[1-(5-chloropyrimidin-2-yl)piperidin-4-yl]cyclopropyl}ethyl)-4-(methylsulfonyl)aniline]
< 10 | Cc1cc(NCC[C@@H]2C[C@@H]2C2CCN(c3ncc(Cl)cn3)CC2)ncc1NC(=O)C(C)(C)C [Ex 29, N-{6-[(2-{(1S,2S)-2-[1-(5-chloropyrimidin-2-yl)piperidin-4-yl]cyclopropyl}ethyl)amino]-4-methylpyridin-3-yl}-2,2-dimethyl propanamide]
< 10 | Clc1cnc(N2CCC([C@H]3C[C@H]3CCNc3ccc4[nH]ncc4c3)CC2)nc1 [Ex 42, N-(2-{(1S,2S)-2-[1-(5-chloropyrimidin-2-yl)piperidin-4-yl]cyclopropyl}ethyl)-1H-indazol-5-amine]
< 10 | O=C1NCc2cc(NCC[C@@H]3C[C@@H]3C3CCN(c4ncc(Cl)cn4)CC3)ccc21 [Ex 44, 5-[(2-{(1S,2S)-2-[1-(5-chloropyrimidin-2-yl)piperidin-4-yl]cyclopropyl}ethyl)amino]isoindolin-1-one]
< 10 | Cc1cc(-n2cnnn2)cnc1NCC[C@@H]1C[C@@H]1C1CCN(c2ncc(Cl)cn2)CC1 [Ex 36, N-(2-{(1S,2S)-2-[1-(5-chloropyrimidin-2-yl)piperidin-4-yl]cyclopropyl}ethyl)-3-methyl-5-(1H-tetrazol-1-yl)pyridin-2-amine]
< 10 | O=C1Cc2cc(NCC[C@@H]3C[C@@H]3C3CCN(c4ncc(Cl)cn4)CC3)cc(Cl)c2N1 [Ex 54, 7-chloro-5-[(2-{(1S,2S)-2-[1-(5-chloropyrimidin-2-yl)piperidin-4-yl]cyclopropyl}ethyl)amino]-1,3-dihydro-2H-indol-2-one]
< 10 | Cc1cc(NCC[C@@H]2C[C@@H]2C2CCN(c3ncc(Cl)cn3)CC2)cnc1NC(=O)C(C)(C)C [Ex 31, N-{5-[(2-{(1S,2S)-2-[1-(5-chloropyrimidin-2-yl)piperidin-4-yl]cyclopropyl}ethyl)amino]-3-methylpyridin-2-yl}-2,2-dimethyl propanamide]
< 10 | Clc1cnc(N2CCC([C@H]3C[C@H]3CCNc3ccc(-n4ccnn4)cc3)CC2)nc1 [Ex 21, N-(2-{(1S,2S)-2-[1-(5-chloropyrimidin-2-yl)piperidin-4-yl]cyclopropyl}ethyl)-4-(1H-1,2,3-triazol-1-yl)aniline]
